Measurements taken from PubChem BioAssay AID256 (DTP/NCI, 2004).
Inconclusive results and toxic doses are left out.

Test system: CD2F1 mice, L1210 leukemia ip, survival T/C
Test: NCI In Vivo Anticancer Drug Screen. Data for tumor model L1210 Leukemia (intraperitoneal) in CD2F1 (CDF1) mice
Details: higher = longer survival
Summary of the method: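 Transplantable tumor in mice; compound-treated vs vehicle-treated groups. Read-out = treated/control ratio of the measured endpoint.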

[1] = endpoint: mean survival time, dose: 12.5 mg/kg/injection, schedule: Q01DX009 (ip), vehicle: water
[2] = endpoint: mean survival time, dose: 25.0 mg/kg/injection, schedule: Q01DX009 (ip), vehicle: water
[3] = endpoint: mean survival time, dose: 50.0 mg/kg/injection, schedule: Q01DX009 (ip), vehicle: water
[4] = endpoint: mean survival time, dose: 100.0 mg/kg/injection, schedule: Q01DX009 (ip), vehicle: water
[5] = endpoint: mean survival time, dose: 200.0 mg/kg/injection, schedule: Q01DX009 (ip), vehicle: water

How did the T/C (endpoint: mean survival time, dose: 2.0 mg/kg/injection, schedule: Q01DX009 (ip), vehicle: water) turn out when `C[n+]1ccc(Nc2ccc(NC(=O)c3ccc(Nc4cc[n+](C)c5ccc(N)cc45)cc3)cc2)cc1` was run?
The T/C was 313 % of control.

And the T/C (endpoint: mean survival time, dose: 4.0 mg/kg/injection, schedule: Q01DX009 (ip), vehicle: water)?
Its T/C is 341 % of control.

What about the T/C (endpoint: median survival time, dose: 0.25 mg/kg/injection, schedule: Q03HX008 (ip), vehicle: water) of the same molecule?
The T/C was 100 % of control.

What about the T/C (endpoint: median survival time, dose: 0.25 mg/kg/injection, schedule: Q03HX016 (ip), vehicle: water) of the same molecule?
Its T/C is 102 % of control.

What about the T/C (endpoint: median survival time, dose: 0.25 mg/kg/injection, schedule: Q03HX024 (ip), vehicle: water) of the same molecule?
The T/C was 110 % of control.

What about the T/C (endpoint: median survival time, dose: 0.5 mg/kg/injection, schedule: Q01DX005 (ip), vehicle: water) of the same molecule?
Its T/C is 120 % of control.

And the T/C (endpoint: median survival time, dose: 0.5 mg/kg/injection, schedule: Q01DX009 (ip), vehicle: water)?
The T/C was 123 % of control.

And the T/C (endpoint: median survival time, dose: 0.5 mg/kg/injection, schedule: Q01DX009 (sc), vehicle: water)?
The T/C was 96 % of control.

And the T/C (endpoint: median survival time, dose: 0.5 mg/kg/injection, schedule: Q03HX008 (ip), vehicle: water)?
Its T/C is 113 % of control.

What about the T/C (endpoint: median survival time, dose: 0.5 mg/kg/injection, schedule: Q03HX016 (ip), vehicle: water) of the same molecule?
Its T/C is 109 % of control.

And the T/C (endpoint: median survival time, dose: 1.0 mg/kg/injection, schedule: Q01DX009 (sc), vehicle: water)?
The T/C was 101 % of control.

And the T/C (endpoint: median survival time, dose: 1.0 mg/kg/injection, schedule: Q03HX016 (ip), vehicle: water)?
The T/C was 158 % of control.

What about the T/C (endpoint: median survival time, dose: 1.0 mg/kg/injection, schedule: Q03HX024 (ip), vehicle: water) of the same molecule?
Its T/C is 180 % of control.

What about the T/C (endpoint: median survival time, dose: 2.0 mg/kg/injection, schedule: Q01DX001 (ip), vehicle: water) of the same molecule?
Its T/C is 103 % of control.

And the T/C (endpoint: median survival time, dose: 2.0 mg/kg/injection, schedule: Q01DX001 (sc), vehicle: water)?
The T/C was 97 % of control.

What about the T/C (endpoint: median survival time, dose: 2.0 mg/kg/injection, schedule: Q01DX005 (ip), vehicle: water) of the same molecule?
The T/C was 164 % of control.

What about the T/C (endpoint: median survival time, dose: 2.0 mg/kg/injection, schedule: Q01DX009 (ip), vehicle: water) of the same molecule?
The T/C was 274 % of control.

And the T/C (endpoint: median survival time, dose: 2.0 mg/kg/injection, schedule: Q01DX009 (oral), vehicle: water)?
Its T/C is 100 % of control.

And the T/C (endpoint: median survival time, dose: 2.0 mg/kg/injection, schedule: Q01DX009 (sc), vehicle: water)?
Its T/C is 157 % of control.

What about the T/C (endpoint: median survival time, dose: 2.0 mg/kg/injection, schedule: Q03HX008 (ip), vehicle: water) of the same molecule?
The T/C was 157 % of control.

What about the T/C (endpoint: median survival time, dose: 2.0 mg/kg/injection, schedule: Q03HX016 (ip), vehicle: water) of the same molecule?
The T/C was 185 % of control.

What about the T/C (endpoint: median survival time, dose: 2.0 mg/kg/injection, schedule: Q03HX024 (ip), vehicle: water) of the same molecule?
Its T/C is 256 % of control.

What about the T/C (endpoint: median survival time, dose: 2.0 mg/kg/injection, schedule: Q04DX003 (ip), vehicle: water) of the same molecule?
The T/C was 113 % of control.

What about the T/C (endpoint: median survival time, dose: 4.0 mg/kg/injection, schedule: Q01DX001 (ip), vehicle: water) of the same molecule?
Its T/C is 114 % of control.

What about the T/C (endpoint: median survival time, dose: 4.0 mg/kg/injection, schedule: Q01DX001 (sc), vehicle: water) of the same molecule?
Its T/C is 100 % of control.

What about the T/C (endpoint: median survival time, dose: 4.0 mg/kg/injection, schedule: Q01DX005 (ip), vehicle: water) of the same molecule?
The T/C was 252 % of control.

And the T/C (endpoint: median survival time, dose: 4.0 mg/kg/injection, schedule: Q01DX009 (ip), vehicle: water)?
Its T/C is 373 % of control.

And the T/C (endpoint: median survival time, dose: 4.0 mg/kg/injection, schedule: Q01DX009 (oral), vehicle: water)?
Its T/C is 97 % of control.

What about the T/C (endpoint: median survival time, dose: 4.0 mg/kg/injection, schedule: Q01DX009 (sc), vehicle: water) of the same molecule?
The T/C was 241 % of control.

What about the T/C (endpoint: median survival time, dose: 4.0 mg/kg/injection, schedule: Q03HX008 (ip), vehicle: water) of the same molecule?
The T/C was 175 % of control.

What about the T/C (endpoint: median survival time, dose: 4.0 mg/kg/injection, schedule: Q03HX016 (ip), vehicle: water) of the same molecule?
Its T/C is 212 % of control.

And the T/C (endpoint: median survival time, dose: 4.0 mg/kg/injection, schedule: Q03HX024 (ip), vehicle: water)?
The T/C was 321 % of control.

What about the T/C (endpoint: median survival time, dose: 4.0 mg/kg/injection, schedule: Q08DX002 (ip), vehicle: water) of the same molecule?
The T/C was 164 % of control.

What about the T/C (endpoint: median survival time, dose: 8.0 mg/kg/injection, schedule: Q01DX001 (oral), vehicle: water) of the same molecule?
The T/C was 92 % of control.

And the T/C (endpoint: median survival time, dose: 8.0 mg/kg/injection, schedule: Q01DX001 (sc), vehicle: water)?
Its T/C is 105 % of control.

And the T/C (endpoint: median survival time, dose: 8.0 mg/kg/injection, schedule: Q01DX009 (ip), vehicle: water)?
Its T/C is 332 % of control.

What about the T/C (endpoint: median survival time, dose: 8.0 mg/kg/injection, schedule: Q01DX009 (oral), vehicle: water) of the same molecule?
Its T/C is 98 % of control.

And the T/C (endpoint: median survival time, dose: 8.0 mg/kg/injection, schedule: Q01DX009 (sc), vehicle: water)?
Its T/C is 307 % of control.

What about the T/C (endpoint: median survival time, dose: 8.0 mg/kg/injection, schedule: Q04DX003 (ip), vehicle: water) of the same molecule?
Its T/C is 157 % of control.

And the T/C (endpoint: median survival time, dose: 16.0 mg/kg/injection, schedule: Q01DX001 (oral), vehicle: water)?
Its T/C is 98 % of control.

And the T/C (endpoint: median survival time, dose: 16.0 mg/kg/injection, schedule: Q01DX001 (sc), vehicle: water)?
The T/C was 121 % of control.

And the T/C (endpoint: median survival time, dose: 16.0 mg/kg/injection, schedule: Q01DX009 (oral), vehicle: water)?
Its T/C is 100 % of control.

What about the T/C (endpoint: median survival time, dose: 16.0 mg/kg/injection, schedule: Q01DX009 (sc), vehicle: water) of the same molecule?
The T/C was 120 % of control.

What about the T/C (endpoint: median survival time, dose: 32.0 mg/kg/injection, schedule: Q01DX001 (oral), vehicle: water) of the same molecule?
The T/C was 96 % of control.

And the T/C (endpoint: median survival time, dose: 32.0 mg/kg/injection, schedule: Q01DX009 (oral), vehicle: water)?
Its T/C is 98 % of control.

And the T/C (endpoint: median survival time, dose: 64.0 mg/kg/injection, schedule: Q01DX001 (oral), vehicle: water)?
The T/C was 100 % of control.

And the T/C (endpoint: median survival time, dose: 64.0 mg/kg/injection, schedule: Q01DX001 (sc), vehicle: water)?
The T/C was 208 % of control.

And the T/C (endpoint: median survival time, dose: 64.0 mg/kg/injection, schedule: Q01DX009 (oral), vehicle: water)?
Its T/C is 100 % of control.

What about the T/C (endpoint: median survival time, dose: 128.0 mg/kg/injection, schedule: Q01DX001 (oral), vehicle: water) of the same molecule?
Its T/C is 102 % of control.

What about the T/C (endpoint: median survival time, dose: 256.0 mg/kg/injection, schedule: Q01DX001 (oral), vehicle: water) of the same molecule?
The T/C was 92 % of control.

Which results are given for `CN(C)Cc1ccc(C(C)(C)C)cc1Br`?
T/C [1]: 98 % of control; T/C [2]: 95 % of control; T/C [3]: 98 % of control; T/C [4]: 98 % of control; T/C [5]: 104 % of control

For `O=C1c2ccccc2C(=O)c2c(NCCCNCCO)ccc(NCCCNCCO)c21`, which T/C (endpoint: mean survival time, dose: 12.5 mg/kg/injection, schedule: Q01DX009 (ip), vehicle: saline with Tween-80) is on record?
Its T/C is 104 % of control.

And the T/C (endpoint: mean survival time, dose: 25.0 mg/kg/injection, schedule: Q01DX009 (ip), vehicle: saline with Tween-80)?
Its T/C is 96 % of control.

And the T/C (endpoint: mean survival time, dose: 50.0 mg/kg/injection, schedule: Q01DX009 (ip), vehicle: saline with Tween-80)?
The T/C was 102 % of control.

`CC(=O)OCC1CCN2CCCC12` (centres undefined) was tested. Which T/C [1] did it give?
The T/C was 101 % of control.

What about the T/C [2] of the same molecule?
The T/C was 96 % of control.

And the T/C [3]?
Its T/C is 98 % of control.

What about the T/C [4] of the same molecule?
Its T/C is 101 % of control.

And the T/C [5]?
The T/C was 101 % of control.

Which T/C (endpoint: mean survival time, dose: 1.25 mg/kg/injection, schedule: Q04DX002 (ip), vehicle: saline with Tween-80) does the source give for `N#CC(O)c1ccc([N+](=O)[O-])cc1` (centres undefined) here?
The T/C was 101 % of control.

What about the T/C (endpoint: mean survival time, dose: 2.5 mg/kg/injection, schedule: Q04DX002 (ip), vehicle: saline with Tween-80) of the same molecule?
Its T/C is 101 % of control.

What about the T/C (endpoint: mean survival time, dose: 5.0 mg/kg/injection, schedule: Q04DX002 (ip), vehicle: saline with Tween-80) of the same molecule?
Its T/C is 101 % of control.

And the T/C (endpoint: mean survival time, dose: 10.0 mg/kg/injection, schedule: Q04DX002 (ip), vehicle: saline with Tween-80)?
The T/C was 97 % of control.

What does the source list for `Cc1cc(O)c(C(C)C)cc1N(C)C` (tested in a mixture with another compound)?
T/C (endpoint: mean survival time, dose: 0.13 mg/kg/injection, schedule: Q01DX009 (ip), vehicle: saline): 100 % of control; T/C (endpoint: mean survival time, dose: 0.25 mg/kg/injection, schedule: Q01DX009 (ip), vehicle: saline): 106 % of control; T/C (endpoint: mean survival time, dose: 0.25 mg/kg/injection, schedule: Q04DX003 (ip), vehicle: saline): 110 % of control; T/C (endpoint: mean survival time, dose: 0.5 mg/kg/injection, schedule: Q01DX001 (ip), vehicle: saline): 97 % of control; T/C (endpoint: mean survival time, dose: 0.5 mg/kg/injection, schedule: Q01DX009 (ip), vehicle: saline): 93 % of control; T/C (endpoint: mean survival time, dose: 0.5 mg/kg/injection, schedule: Q04DX003 (ip), vehicle: saline): 87 % of control; T/C (endpoint: mean survival time, dose: 1.0 mg/kg/injection, schedule: Q01DX001 (ip), vehicle: saline): 97 % of control
